# Assay results: PMC11077991, “The small molecule CBR-5884 inhibits the Candida albicans phosphatidylserine synthase” (mBio, 2024)
# Key:
# [1] = system: in vivo PS production in wild-type C. albicans; assay: metabolic labeling of PS using probe C-L-SerN3; type: cell-based, Candida albicans; conditions: 170 µM CBR-5884, 1.5 mM probe
# Description: The C-L-SerN3 probe [(S)-1-((3-azidopropyl)amino)-3-hydroxy-1-oxopropan-2-aminium chloride] was synthesized as described in reference ([59]). Cells grown overnight in YPD were washed three times in H2O and inoculated into minimal media at a starting OD600 of 0.05. Cells were shaken for 5 h before 1.5 mM C-L-SerN3 probe was added, along with 170 µM CBR-5884 or an equivalent volume of DMSO. Cells were then incubated for another 5 h before being washed three times with H2O, and 5% BSA in 1× PBS was used to treat cells for 20 min. The cells were then washed three times with 1× PBS and then resuspended to OD600 of 0.6 in 1 mL PBS + 1 µM AZDye 488 DBCO (Click chemistry tools, cat# 1278-1). Cells were covered with aluminum foil and rocked for 1 h, and the dye was removed by pelleting the cells at 5,000 × g followed by washing with shaking at 1,000 rpm three times in 1× PBS, and resuspended in 200 µL Fluoromount-G mounting medium (cat# 00-4958-02). For each treatment, 10 µL of cells was added to a glass slide and 3 µL fresh Fluoromount-G mounting medium was used to mix the sample. […] The samples were excited using light at a wavelength of 488 nm, and the resulting fluorescence was captured within the range of 498–550 nm using a HyD detector. […] A total of 40 cells from at least 10 images were used for the quantification in ImageJ software.
# [2] = system: phospholipid levels in C. albicans; assay: thin-layer chromatography of phospholipids; type: cell-based, Candida albicans; conditions: 170 µM, 2 h
# Description: Wild-type SC5314 and cho1ΔΔ strains grown overnight in YPD were inoculated into fresh YPD at OD600 of 0.1 and were shaken for another 3 h. Then, 170 µM CBR-5884 or equivalent DMSO solvent was added to both wild-type and cho1ΔΔ cultures, and cells were shaken for another 2 h. Then, cells were washed with 1× PBS three times and normalized to a total OD600 of 1. The phospholipids were extracted with the hot ethanol method as described in reference ([14]). A Whatman 250 µm silica gel aluminum backed plate was treated, and separation of phospholipids was carried out as described in reference ([100]). Phospholipid standards PI, PE, PS, and PC were purchased from Avanti. The quantification of the phospholipids was done in ImageJ software.
compound,measurement,setting,value
CCOC(=O)c1sc(NC(=O)c2ccco2)c(SC#N)c1C [CBR-5884],C-L-SerN3 fluorescence on the periphery of the cell,[1],significantly diminished
same,PI levels,[2],not strongly affected
same,relative PS level in wild-type strain vs DMSO,[2],significantly dropped
same,relative PE levels,[2]; wild-type and cho1ΔΔ,significantly decreased
